Measurements taken from patent US11026944B2, “Compositions and methods for treating insomnia” (Eisai R&D Management Co., Ltd., priority 2014, dated 2021).
Read-outs that look alike come from different tables or passages of the source.

How the values were obtained:
[1] = tested on: subjects with primary insomnia; assay: 001 Study Part B: next day KSS, DSST, PVT; format: in vivo, human
Source text: After the initial Screening visit, eligible subjects were scheduled to return to the clinic for 2 days during the Screening Period to conduct screening/baseline PSGs. These two days occurred at least 3 days after the initial Screening visit and within a window from Day-7 to Day-6 (±2 days). The first PSG was used to screen for sleep apnea and periodic limb movements in sleep (PLMS) and serve as the first baseline PSG. The second PSG was used as the second baseline PSG. Specific PSG variables were used to determine whether subjects met PSG inclusion criteria, and the average of PSG variables from these two PSGs was used as Baseline for this PD measure. Subjects who had met PSG inclusion criteria returned to the clinic on Day-1 for additional baseline procedures and randomization. Subjects were not allowed to nap on Day 1. On the evening of Day 1, after fasting a minimum of 3 hours, study drug was administered 30 minutes prior to the subject's habitual bedtime (lights-out), as calculated from the sleep diary for the first PSG during the Screening Period. PK blood samples were collected at prespecified timepoints, and PD assessments were performed. PSG was recorded on Day 1, postdose. Subjects were administered additional PD assessments each morning on Day 1 through Day 6. These assessments included the KSS, DSST, and PVT, in order to assess daytime sleepiness, level of alertness, and ability to concentrate. The KSS and DSST were also administered 5 minutes predose and 25 minutes postdose on Day 1, just prior to lights-out. Waketime Questionnaires were administered after the PD assessments within 15 minutes of lights-on, on Day 1 to Day 6. Time and duration of naps was recorded on Day 2.
Part B subjects were administered the KSS, DSST, and PVT within 15 minutes after lights-on specifically in that order, on each morning from Day 1 through Day 6, followed by the Waketime Questionnaire. The KSS and DSST were also administered 5 minutes predose and 25 minutes postdose on Day 1 (just prior to lights-out).

[2] = Single daily dose PK in human subjects (summary statements); format: in vivo; details: plasma, oral; for Cmax: read-out: mean maximum plasma concentration (Cmax); for half-life: read-out: mean t1/2 (converted); for Tmax: read-out: mean time to maximum plasma concentration (tmax)

With `Cc1ncc(OC[C@@]2(c3cccc(F)c3)C[C@H]2C(=O)Nc2ccc(F)cn2)c(C)n1` [Compound A, (1R,2 S)-2-(((2,4-dimethylpyrimidin-5-yl)oxy)methyl)-2-(3-fluorophenyl)-N-(5-fluoropyridin-2-yl) cyclopropanecarboxamide] as the molecule, how does the “next day effects on KSS, DSST, or PVT” value ([1]; any dose of compound A (2.5, 10, 25 mg), zolpidem 10 mg) read?
Its value is “no clinically significant next day effects”.

What about the “measures of next-day residual sleepiness” value ([1]; single 25 mg evening dose) of the same molecule?
Its value is “some individuals at this dose exhibited increases from baseline”.

What about the AUC(0-t) ([2]; 2.5 mg, single 2.5 mg daily dose, read-out: mean AUC(0-24)) of the same molecule?
The AUC(0-t) was 57 to 60 ng·h/mL.

And the AUC(0-t) ([2]; 2.5 mg, single 2.5 mg daily dose, read-out: mean AUC(0-t))?
The AUC(0-t) was 80 to 95 ng·h/mL.

What about the AUC(0-t) ([2]; 5 mg, single 5 mg daily dose, read-out: mean AUC(0-24)) of the same molecule?
Its AUC(0-t) is 95 to 110 ng·h/mL.

What about the AUC(0-t) ([2]; 5 mg, single 5 mg daily dose, read-out: mean AUC(0-t)) of the same molecule?
Its AUC(0-t) is roughly 128 ng·h/mL.

What about the AUC(0-t) ([2]; 10 mg, single 10 mg daily dose, read-out: mean AUC(0-24)) of the same molecule?
Its AUC(0-t) is 160 to 190 ng·h/mL.

And the AUC(0-t) ([2]; 10 mg, single 10 mg daily dose, read-out: mean AUC(0-t))?
Its AUC(0-t) is 280 to 510 ng·h/mL.

And the AUC(0-inf) ([2]; single 2.5 mg daily dose)?
The AUC(0-inf) was 80 to 103 ng·h/mL.

And the Cmax ([2]; single 2.5 mg daily dose)?
Its Cmax is 10 to 18 ng/mL.

And the half-life ([2]; single 2.5 mg daily dose)?
Its half-life is 30 to 37 h.

And the Tmax ([2]; single 2.5 mg daily dose)?
The Tmax was 1 to 2 h.

What about the AUC(0-inf) ([2]; single 5 mg daily dose) of the same molecule?
The AUC(0-inf) was roughly 150 ng·h/mL.

And the Cmax ([2]; single 5 mg daily dose)?
The Cmax was 19 to 23 ng/mL.

And the half-life ([2]; single 5 mg daily dose)?
The half-life was roughly 31 h.

And the Tmax ([2]; single 5 mg daily dose)?
The Tmax was 1 to 2 h.

What about the AUC(0-inf) ([2]; single 10 mg daily dose) of the same molecule?
The AUC(0-inf) was 310 to 530 ng·h/mL.

What about the Cmax ([2]; single 10 mg daily dose) of the same molecule?
The Cmax was 30 to 58 ng/mL.

And the half-life ([2]; single 10 mg daily dose)?
The half-life was 56 to 60 h.

What about the Tmax ([2]; single 10 mg daily dose) of the same molecule?
The Tmax was 1 to 3.25 h.
